Patent US20220273619A1, “PHARMACEUTICAL FORMULATIONS COMPRISING SODIUM PALMITOYL-L-PROLYL-L-PROLYLGLYCYL-L-TYROSINATE AND METHODS FOR PREPARING THE SAME” (Bridge Blctherapeutics, lnc., priority 2019, published 2022)
In brackets after ≈: the same amount, converted by molar mass. Counter-ions that a name gives are not always drawn. Where a SMILES comes first, the peptide text is derived from it. The star is where a group is joined. Palmitoyl = CCCCCCCCCCCCCCCC(=O)*

How the values were obtained:
[1] = Solubility in water of other salts of Compound II; type: physicochemical
[2] = Stability test: impurities by HPLC after storage; type: physicochemical
Description: After the dosage forms prepared in the present invention were stored for a period of time in a long-term storage stability condition (25° C./60% RH) or an accelerated stability condition (40° C./75% RH), the content of individual impurities or total impurities was measured. The impurities were measured using a validated HPLC analysis method. The specific conditions are as follows.

[3] = Solubility at room temperature, manual dilution combined with visual observation; type: physicochemical; settings: for solubility: room temperature
Description: The solubility was tested in various solvents for palmitoyl-L-prolyl-L-prolyl-glycyl-L-tyrosine (Compound II). The solubility test was performed by manual dilution combined with visual observation.
The solubility was tested at room temperature in various solvents for Compound I. In addition, the solubility test was performed by manual dilution combined with visual observation. Specifically, 2 mg of Compound I was added to a 1.5 mL HPLC vial and continuously stirred at ambient temperature while the solvent was gradually added.

[4] = Solubility by shaking at 25° C., filtration and HPLC of the filtrate; type: physicochemical
Description: The solubility was measured by the following method. An appropriate amount of sample was placed in a 1.5 mL HPLC vial, and then 1.0 mL of solvent was added. The HPLC vial was shaken at 25° C. at a speed of 700 rpm, then the slurry was filtered, and the filtrate was analyzed by HPLC. In this case, the limit of quantification (LOQ) was 2 μg/mL.
In order to increase the solubility of palmitoyl-L-prolyl-L-prolyl-glycyl-L-tyrosine (Compound II) in water, the amorphous solid dispersions of Compound II were prepared, and then the solubility was measured.
In order to increase the solubility of palmitoyl-L-prolyl-L-prolyl-glycyl-L-tyrosine (Compound II) in water, a surfactant such as sodium lauryl sulfate (SLS) was added, and the solubility was measured.

interleukin-6 = settings: cited from earlier work
NF-κB = settings: cited from earlier work
[5] = Solid-form observation of the disodium salt (hygroscopicity); type: physicochemical; settings: could not be maintained in the form of the solid powder
Description: In the method for preparing Compound I, an excess of NaOH (for example; 4 equivalents) was added to prepare disodium palmitoyl-L-prolyl-L-prolyl-glycyl-L-tyrosinate.

[6] = 1,4-dioxane, 1,4-dioxane, read-out: Solubility
[7] = 1-butanol, read-out: Solubility
[8] = 2-methyl tetrahydrofuran, read-out: Solubility
[9] = ACN-H2O (1:1), read-out: Solubility
[10] = N-methyl pyrrolidone, read-out: Solubility
[11] = THF-H2O (1:1), read-out: Solubility
[12] = acetone-H2O (1:2), read-out: Solubility
[13] = acetonitrile, read-out: Solubility
[14] = cyclohexane, read-out: Solubility
[15] = ethanol-H2O (1:1), read-out: Solubility
[16] = ethanol-H2O (3:1), read-out: Solubility
[17] = ethyl acetate, read-out: Solubility
[18] = isopropyl acetate, read-out: Solubility
[19] = isopropyl alcohol, read-out: Solubility
[20] = methanol-H2O (1:1), read-out: Solubility
[21] = methanol-H2O (3:1), read-out: Solubility
[22] = methyl ethyl ketone, read-out: Solubility
[23] = methyl isobutyl ketone, read-out: Solubility
[24] = methyl t-butyl ether, read-out: Solubility
[25] = tetrahydrofuran, read-out: Solubility
[26] = SGF (pH = 1.2), 25° C., LOQ = 2 μg/mL

Compound: CCCCCCCCCCCCCCCC(=O)N1CCC[C@H]1C(=O)N1CCC[C@H]1C(=O)NCC(=O)N[C@@H](Cc1ccc(O)cc1)C(=O)O [Arginine Salt] (Palmitoyl-PPGY-OH)
- solubility [1]: <10000 µg/mL

Compound: CCCCCCCCCCCCCCCC(=O)N1CCC[C@H]1C(=O)N1CCC[C@H]1C(=O)NCC(=O)N[C@@H](Cc1ccc(O)cc1)C(=O)[O-].[Na+] [Compound I, sodium palmitoyl-L-prolyl-L-prolyl-glycyl-L-tyrosinate] (Palmitoyl-PPGY-OH)
- Stability of Compound I ([2]; in capsules of Table 26, 1 month, accelerated stability condition 40° C./75% RH): stable
- Stability of Compound I ([2]; in capsules of Table 31, 1 month, accelerated stability condition 40° C./75% RH): stable
- Stability of Compound I ([2]; in capsules of Table 36, 6 months, long-term storage stability condition 25° C./60% RH): stable
- Stability of Compound I ([2]; in capsules of Table 37, 6 months, accelerated stability condition 40° C./75% RH): stable
- solubility [3, 6]: 33300 to 50000 µg/mL
- solubility [3, 7]: 50000 to 100000 µg/mL
- solubility [3, 8]: > 100000 µg/mL
- solubility [3, 9]: 50000 to 100000 µg/mL
- solubility ([3]; DMF, read-out: Solubility): 20000 to 33300 µg/mL
- solubility ([3]; DMSO, read-out: Solubility): 50000 to 100000 µg/mL
- solubility [3, 10]: 50000 to 100000 µg/mL
- solubility [3, 11]: 50000 to 100000 µg/mL
- solubility [3, 12]: 50000 to 100000 µg/mL
- solubility ([3]; acetone, read-out: Solubility): < 1000 µg/mL
- solubility [3, 13]: < 1000 µg/mL
- solubility [3, 14]: < 1000 µg/mL
- solubility [3, 15]: 50000 to 100000 µg/mL
- solubility [3, 16]: 50000 to 100000 µg/mL
- solubility ([3]; ethanol, read-out: Solubility): 50000 to 100000 µg/mL
- solubility [3, 17]: < 1000 µg/mL
- solubility ([3]; heptane, read-out: Solubility): < 1000 µg/mL
- solubility [3, 18]: < 1000 µg/mL
- solubility [3, 19]: 50000 to 100000 µg/mL
- solubility [3, 20]: > 100000 µg/mL
- solubility [3, 21]: > 100000 µg/mL
- solubility ([3]; methanol, read-out: Solubility): > 100000 µg/mL
- solubility [3, 22]: 3300 to 5000 µg/mL
- solubility [3, 23]: 1200 to 1400 µg/mL
- solubility [3, 24]: < 1000 µg/mL
- solubility [3, 25]: > 100000 µg/mL
- solubility ([3]; toluene, read-out: Solubility): 50000 to 100000 µg/mL
- water solubility of Compound I compared to that of Compound II in an acid form ([3]; water): tens of thousands of times or more
- solubility ([3]; water, read-out: Solubility): ≥ 100000 µg/mL

Compound: CCCCCCCCCCCCCCCC(=O)N1CCC[C@H]1C(=O)N1CCC[C@H]1C(=O)NCC(=O)N[C@@H](Cc1ccc(O)cc1)C(=O)O [Compound II, Palmitoyl-L-prolyl-L-prolyl-glycyl-L-tyrosine] (Palmitoyl-PPGY-OH)
- solubility ([4]; 1% Poloxamer 188 added, SGF (pH = 1.2), LOQ = 2 μg/mL): <LOQ
- solubility ([4]; 1% Poloxamer 188 added, Water, LOQ = 2 μg/mL): <LOQ
- solubility ([4]; 5% Poloxamer 188 added, SGF (pH = 1.2), LOQ = 2 μg/mL): <LOQ
- solubility ([4]; 5% Poloxamer 188 added, Water, LOQ = 2 μg/mL): <LOQ
- solubility ([4]; FaSSIF with 1% Poloxamer 188, 1% Poloxamer 188 added, FaSSIF, LOQ = 2 μg/mL, read-out: Solubility): 10 µg/mL (≈ 14.9 µM)
- solubility ([4]; FaSSIF with 1% SLS, 1% SLS added, FaSSIF, LOQ = 2 μg/mL, read-out: Solubility): 1990 µg/mL (≈ 2970 µM)
- solubility ([4]; FaSSIF with 5% Poloxamer 188, 5% Poloxamer 188 added, FaSSIF, LOQ = 2 μg/mL, read-out: Solubility): 10 µg/mL (≈ 14.9 µM)
- solubility ([4]; FaSSIF with 5% SLS, 5% SLS added, FaSSIF, LOQ = 2 μg/mL, read-out: Solubility): 5090 µg/mL (≈ 7590 µM)
- solubility ([4]; FaSSIF, 25° C., LOQ = 2 μg/mL): 10 µg/mL (≈ 14.9 µM)
- solubility [4, 26]: <LOQ
- solubility ([4]; SGF with 1% SLS, pH 1.2, 1% SLS added, SGF (pH = 1.2), LOQ = 2 μg/mL, read-out: Solubility): 90 µg/mL (≈ 134 µM)
- solubility ([4]; SGF with 5% SLS, pH 1.2, 5% SLS added, SGF (pH = 1.2), LOQ = 2 μg/mL, read-out: Solubility): 380 µg/mL (≈ 566 µM)
- solubility ([4]; Water, 25° C., LOQ = 2 μg/mL): <LOQ
- solubility ([4]; water with 1% SLS, 1% SLS added, Water, LOQ = 2 μg/mL, read-out: Solubility): 470 µg/mL (≈ 701 µM)
- solubility ([4]; water with 5% SLS, 5% SLS added, Water, LOQ = 2 μg/mL, read-out: Solubility): 1920 µg/mL (≈ 2860 µM)
- solubility ([4]; water, lower than the limit of quantification (LOQ), read-out: water solubility): < 2 µg/mL
- inhibiting the expression of interleukin-6 (interleukin-6): excellent effect
- inhibiting the activity of NF-κB (NF-κB): excellent effect
- solubility [3, 6]: < 1000 µg/mL
- solubility [3, 7]: < 1000 µg/mL
- solubility [3, 8]: < 1000 µg/mL
- solubility [3, 9]: < 1000 µg/mL
- solubility ([3]; DMF, read-out: Solubility): 1000 to 5000 µg/mL
- solubility ([3]; DMSO, read-out: Solubility): 10000 to 25000 µg/mL
- solubility [3, 10]: 1000 to 5000 µg/mL
- solubility [3, 11]: 1000 to 5000 µg/mL
- solubility ([3]; Water): <1000 µg/mL
- solubility [3, 12]: < 1000 µg/mL
- solubility ([3]; acetone, read-out: Solubility): < 1000 µg/mL
- solubility [3, 13]: < 1000 µg/mL
- solubility [3, 14]: < 1000 µg/mL
- solubility [3, 15]: < 1000 µg/mL
- solubility [3, 16]: < 1000 µg/mL
- solubility ([3]; ethanol, read-out: Solubility): < 1000 µg/mL
- solubility [3, 17]: < 1000 µg/mL
- solubility ([3]; heptane, read-out: Solubility): < 1000 µg/mL
- solubility [3, 18]: < 1000 µg/mL
- solubility [3, 19]: < 1000 µg/mL
- solubility [3, 20]: < 1000 µg/mL
- solubility [3, 21]: < 1000 µg/mL
- solubility ([3]; methanol, read-out: Solubility): 1000 to 5000 µg/mL
- solubility [3, 22]: < 1000 µg/mL
- solubility [3, 23]: < 1000 µg/mL
- solubility [3, 24]: < 1000 µg/mL
- solubility [3, 25]: < 1000 µg/mL
- solubility ([3]; toluene, read-out: Solubility): < 1000 µg/mL
- solubility ([3]; water, read-out: Solubility): < 1000 µg/mL

Compound: CCCCCCCCCCCCCCCC(=O)N1CCC[C@H]1C(=O)N1CCC[C@H]1C(=O)NCC(=O)N[C@@H](Cc1ccc([O-])cc1)C(=O)[O-].[Na+].[Na+] [Disodium Palmitoyl-L-prolyl-L-prolyl-glycyl-L-tyrosinate] (Palmitoyl-PPGY-OH)
- Hygroscopicity [5]: very hygroscopic

Compound: CCCCCCCCCCCCCCCC(=O)N1CCC[C@H]1C(=O)N1CCC[C@H]1C(=O)NCC(=O)N[C@@H](Cc1ccc(O)cc1)C(=O)O [Meglumine Salt] (Palmitoyl-PPGY-OH)
- solubility ([1]; read-out: Solubility): < 10000 µg/mL

Compound: CCCCCCCCCCCCCCCC(=O)N1CCC[C@H]1C(=O)N1CCC[C@H]1C(=O)NCC(=O)N[C@@H](Cc1ccc(O)cc1)C(=O)O [Micronized Compound II] (Palmitoyl-PPGY-OH)
- solubility ([4]; FaSSIF, 25° C., LOQ = 2 μg/mL): 50 µg/mL (≈ 74.5 µM)
- solubility [4, 26]: <LOQ
- solubility ([4]; Water, 25° C., LOQ = 2 μg/mL): <LOQ
